Tests used:
[1] = system: antigen-challenged sheep; assay: Allergic sheep model of asthma: airway hyperresponsiveness to carbachol (PC400) 24 hours after antigen challenge; format: in vivo
Description: (§1) The initial asthmatic response can be evaluated in guinea pigs, and dogs, and particularly, with a basenji-greyhound cross strain which develops nonspecific airway hyperresponsiveness to numerous nonallergenic substances, such as methacholine and citric acid. […] In dual responding animals, the initial asthmatic response (IAR) is followed by a late asthmatic response (LAR) at 6-8 hours post-exposure.
(§2) The allergic sheep model of asthma was employed for he in vivo evaluation of the compounds of the invention as antiasthmatics. These methods have been published previously (see Abraham et al. (1983) Am. Rev. Respir. Dis. 128:839-844; Allegra et al. (1983) J. Appl. Physiol. 55:726-730; Russi et al. (1985) J. Appl. Physiol. 59:1416-1422; Soler et al. (1989) J. Appl. Physiol. 67:406-413. Each sheep serves as its own control. Body weights for these animals ranged from 20-50 kilograms.
Twenty-four hours after antigen challenge in both the control and drug trial, the sheep developed airway hyperresponsiveness. Airway hyperresponsiveness is expressed as PC400, the concentration of carbachol that causes a 400% increase in SRL; therefore, a decrease in PC400 indicates hyperresponsiveness. […] The number of breath units fell to 12 for those animals in the control group.

[2] = system: antigen-challenged sheep; assay: Allergic sheep model of asthma: Specific Lung Resistance (SRL) after antigen challenge; format: in vivo
Description: as §1
The allergic sheep model (see below) was used to evaluate the potential antiasthmatic effects of the compounds of the present invention.
as §2
The peak early response was taken as the average of the maximum values occurring immediately post-challenge. Peak late responses were calculated by averaging the maximum response values obtained for each animal within the 6-8 hour time period. This approach is conservative and eliminates the possible reduction in the late response due simply to averaging.
Three doses of the compound (2 mg in 10 mL water) were administered to sheep through an intergastric tube 1 hr before challenge, 4 hours post-challenge, and 24 hours post-challenge.

[3] = system: tryptase; assay: In vitro tryptase inhibition assay (hydrolysis of tosyl-Gly-Pro-Lys-p-nitroanilide); format: biochemical, human; conditions: apparent affinity comparable to enzyme concentration
Description: The compounds to be assayed (approximately 1 mg) were dissolved in 200 μL dimethylsulfoxide (DMSO) and diluted 1:10 into buffer containing 50 millimolar (mM) Tris-HCl (pH 8.2), 100 mM sodium chloride, and 0.05% polyoxyethylenesorbitan monolaurate (Tween-20®, available from Sigma, St. Louis, Mo.). Seven additional threefold dilutions were made from the initial dilution into the same buffer supplemented with 10% DMSO. Aliquots (50 microliters, μL) from each of the eight dilutions in the series were transferred to individual wells in a 96-well U-bottom microtiter plate. 25 μL of a stock solution of tryptase was added to each well and the samples were mixed and incubated for one hour at room temperature (tryptase was purified from human lung and skin tissue preparations, HMC-1 (human mast cell line) and also obtained from commercial sources (ICN Biomedicals, Irvine, Calif.; Athens Research & Technology, Athens, Ga.)). […] The tryptase solution was prepared by placing 60 μg/mL of tryptase into solution with 10 mM MES (2-[N-Morpholino]ethane sulfonic acid) containing 2 mM CaCl2, 20% glycerol and 50 μg/mL heparin. The enzyme reaction was initiated with the addition of the synthetic tripeptide substrate, tosyl-Gly-Pro-Lys-p-nitroanilide (available from Sigma, 25 μL; 0.5 mM final concentration).
However, Ki ' varies with the enzyme concentration used in the enzyme assay. […] The y-intercept of a replot of IC50 (ordinate) versus tryptase concentration (abscissa) produces a value for Ki '.
The inhibition constants (Ki ', micromolar (μM)) were determined for the compounds of the present invention.

N=C(N)Nc1ccc(CNC(=O)N2CCN(C(=O)O[C@H]3CCC[C@@H](OC(=O)N4CCN(C(=O)NCc5ccc(NC(=N)N)cc5)CC4)CCC3)CC2)cc1 [Compound 3, cis-1,5-Cyclooctylene bis[4-(4-guanidinobenzylcarbamoyl)-1-piperazinecarboxylate]]
airway function in antigen challenged sheep (aerosol) ([1]; aerosol 3 x 50 μg (FIG. 2)): significant improvement in airway function
airway hyperresponsiveness, PC400 (aerosol) ([1]; aerosol 3 x 50 μg, 24 h after challenge, baseline 32, control 12 (FIG. 2)): ~32 breath units
airway function / PC400 (aerosol pretreatment) ([1]; aerosol predosing 0.5 mg/day x 3 days plus 0.5 mg 0.5 h before challenge (FIG. 8)): significant improvement in airway function
onset of hyperresponsiveness (PC400, aerosol), result in words ([1]; aerosol, 24 h after antigen challenge, Compound 3 3 x 50 μg (FIG. 2), Compound 2 3 x 0.1 mg (FIG. 6)): block the onset of hyperresponsiveness
early and late responses to antigen challenge, SRL (aerosol) ([2]; Compound 3: aerosol 50 μg 0.5 h before, 4 h and 24 h after challenge, n=3 (FIG. 1), Compound 2: aerosol 3 x 0.1 mg (FIG. 5)): significant attenuation of the early and late responses to the antigen challenge
early and late phase response to antigen challenge, SRL (aerosol pretreatment) ([2]; aerosol predosing 0.5 mg/day x 3 days plus 0.5 mg 0.5 h before challenge (FIG. 7)): significant attenuation of early and late phase response to antigen challenge
early phase SRL (oral) ([2]; intragastric 2 mg in 10 mL water 1 h before, 4 h and 24 h post-challenge, untreated about 250): about 175
late phase SRL (oral) ([2]; intragastric 2 mg in 10 mL water 1 h before, 4 h and 24 h post-challenge, untreated over 200): about 50
anti-asthmatic properties when delivered orally ([2]; oral, 3 x 2 mg): significant anti-asthmatic properties when delivered orally
type of tryptase inhibition [3]: tight binding inhibitor
